Reference: patent US20100284924A1, “NANO-DEVICES HAVING IMPELLERS FOR CAPTURE AND RELEASE OF MOLECULES” (The Regents of the University of California, priority 2009, published 2010)

Assays:
PANC-1 cancer cells [1] = assay: Photocontrolled staining of cell nuclei by released PI, confocal microscopy; type: cell-based, human; conditions: free PI not loaded into the particles
Protocol: FIGS. 8A-8C show confocal microscope images of the photocontrolled staining of the nuclei of PANC-1 cancer cells. Plasma membrane impermeable propidium iodide (PI) molecules were loaded in the pores of LAMS and the dye loaded particles were incubated with the cells for 3 hours in the dark. The cells were then exposed to the activation beam for 1 to 10 min. After further incubation in the dark for 10 min, the cells were examined with confocal microscopy ([…]) FIG. 8A. Cells incubated with the PI-loaded LAMS and illuminated for 0 (a), 1 (b), 3 (c), or 5 min (f) under a constant ˜0.2 W/cm^2, 413 nm light or with different light intensities (˜0.01 (d) or ˜0.1 W/cm^2 (e) for 5 min at a 413 nm light). FIG. 8B. PANC-1 cells incubated with the PI-loaded LAMS (g), free PI molecules (h), or empty LAMS (i) were kept in the dark and exposed to a 413 nm light. FIG. 8C. Cells incubated with the PI-loaded LAMS were illuminated with ˜0.2 W/cm^2, 676 nm light for 0 (j), 1 (k) or 5 min (l). Scale bar: 30 μm.
Based on the successful operation of the impeller in water, in vitro studies were carried out on two human cancer cell lines (PANC-1 and SW480). To detect the photo-responsive behavior of the impellers inside of cells, a membrane-impermeable dye, PI was chosen as the fluorescent probe molecule and loaded into the particles following the same procedure as that used for the Rhodamine B loading. […]

PANC-1 cancer cells [2] = assay: Cell death assay, propidium iodide/Hoechst 33342 double-staining, confocal imaging; type: cell-based, human; conditions: CPT suspended in PBS, not in particles
Protocol: FIGS. 9A-9C show light-triggered delivery of the anticancer drug camptothecin (CPT) inside PANC-1 cancer cells to induce apoptosis according to an embodiment of the current invention, CPT molecules were loaded into the pores of the LAMS and a homogeneous suspension of the CPT-loaded particles (10 μg/ml) was added to the cells which were incubated in Lab-Tek chamber slides for 3 hrs in dark. The cells were then irradiated under ˜0.1 W/cm^2, 413 nm light for 1 to 10 min, again incubated in the dark for 48 hours, and double-stained with propidium iodide/Hoechst 33342 solution (1:1). FIG. 9A. CPT-loaded particles were incubated with cancer cells and illuminated for 1 (a), 3 (b), 5 (c) or 10 min (d, e, f). FIG. 9B. […]
Cell Death Assay: Cell death was also examined by using the propidium iodide and Hoechst 33342 double-staining method. The cells incubated on a Lab-Tek chamber slide system were stained with propidium iodide/Hoechst 33342 (1:1) for 5 min after treatment with CPT-loaded LAMS or free LAMS followed by light irradiation, and then examined with fluorescence microscopy. […] The absorbance of each well was measured at 450 nm with a plate reader. Since the absorbance is proportional to the number of viable cells in the medium, the viable cell number was determined by using a previously prepared calibration curve (Dojindo Co.).

| Compound | cell staining (cell entry) (PANC-1 cancer cells [1]) | cell killing (PANC-1 cancer cells [2]) |
| --- | --- | --- |
| CC[N+](C)(CC)CCC[n+]1c(-c2ccccc2)c2cc(N)ccc2c2ccc(N)cc21.[I-].[I-] [PI, propidium iodide] | cell staining did not occur | – |
| CC[C@@]1(O)C(=O)OCc2c1cc1n(c2=O)Cc2cc3ccccc3nc2-1 [CPT, camptothecin] | – | did not kill the cells |
